Experimental data from patent US10328054B2, “Substituted pyrrolidines as mGluR5 antagonists” (Hua Medicine (Shanghai) Ltd., priority 2015, dated 2019).

Molecular target: recombinant rat mGluR5 (Rattus norvegicus (Rat), UniProt P31424)
Assay: Functional calcium flux assay (FLIPR)
Assay type: cell-based
Conditions: HEK293 cells stably expressing recombinant rat mGluR5; inhibition of glutamate-evoked [Ca2+]i increase, 15 min incubation of test compound
Method: For functional assays, HEK293 cells stably expressing recombinant rat mGluR5 were seeded in 384-well plates and dye loaded using Fluo-8. Cells were then washed to remove the un-incorporated dye. Antagonist evaluation was performed following a 15 min incubation of the test compound followed by the addition of submaximal concentration of glutamate. Intracellular calcium ([Ca^2+]i) measurements were performed using a fluorometric imaging plate reader (FLIPR, Molecular Devices). The glutamate-evoked increase in [Ca^2+]i in the presence of the test compounds was compared to the response to glutamate alone (the positive control). Antagonist inhibition curves were fitted with a 4-parameter logistic equation giving IC50 values, and Hill coefficients using an iterative nonlinear curve fitting algorithm.
The tables below provide IC50 data in this assay. In the activity column, A=IC50>1,000 and <5,000 nM; B=IC50>500 and <1,000 nM and C=IC50<500 nM.

Sequence of recombinant rat mGluR5 (P31424 21-1203): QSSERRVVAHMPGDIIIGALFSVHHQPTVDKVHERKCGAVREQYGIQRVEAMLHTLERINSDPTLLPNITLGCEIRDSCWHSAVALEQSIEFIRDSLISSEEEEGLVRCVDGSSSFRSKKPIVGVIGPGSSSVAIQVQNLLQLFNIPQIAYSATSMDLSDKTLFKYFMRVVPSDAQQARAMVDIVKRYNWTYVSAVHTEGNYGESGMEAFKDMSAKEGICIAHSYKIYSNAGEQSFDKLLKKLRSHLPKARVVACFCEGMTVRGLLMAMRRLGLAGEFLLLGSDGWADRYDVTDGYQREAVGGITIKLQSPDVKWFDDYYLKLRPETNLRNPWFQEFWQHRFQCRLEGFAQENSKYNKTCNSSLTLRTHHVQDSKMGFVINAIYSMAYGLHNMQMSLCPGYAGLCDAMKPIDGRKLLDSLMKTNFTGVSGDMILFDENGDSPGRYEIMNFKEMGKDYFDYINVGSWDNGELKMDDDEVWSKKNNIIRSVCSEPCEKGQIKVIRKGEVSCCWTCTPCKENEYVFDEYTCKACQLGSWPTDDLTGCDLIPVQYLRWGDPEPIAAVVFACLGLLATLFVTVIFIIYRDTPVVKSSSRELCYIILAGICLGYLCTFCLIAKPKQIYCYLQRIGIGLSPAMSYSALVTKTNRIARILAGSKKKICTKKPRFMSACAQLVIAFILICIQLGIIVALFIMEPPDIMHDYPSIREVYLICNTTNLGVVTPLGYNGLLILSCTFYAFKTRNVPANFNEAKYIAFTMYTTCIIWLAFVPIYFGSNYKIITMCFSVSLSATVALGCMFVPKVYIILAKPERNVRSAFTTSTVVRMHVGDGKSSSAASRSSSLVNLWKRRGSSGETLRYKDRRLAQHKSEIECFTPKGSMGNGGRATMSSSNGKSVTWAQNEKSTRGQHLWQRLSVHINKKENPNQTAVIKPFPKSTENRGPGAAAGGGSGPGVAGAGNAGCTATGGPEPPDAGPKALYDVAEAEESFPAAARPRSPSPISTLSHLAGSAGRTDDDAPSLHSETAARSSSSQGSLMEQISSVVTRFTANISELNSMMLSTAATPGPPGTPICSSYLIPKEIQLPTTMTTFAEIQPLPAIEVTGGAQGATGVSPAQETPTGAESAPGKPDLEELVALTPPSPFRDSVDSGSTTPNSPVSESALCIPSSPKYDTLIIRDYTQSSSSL

Compound	IC50 [nM]
N#Cc1cc(F)cc(N2CC3CC3(C#Cc3ccnc(Cl)c3)C2)c1 (centres unmarked) [Example Compound 12, 3-(1-((2-chloropyridin-4-yl)ethynyl)-3-azabicyclo[3.1.0]hexan-3-yl)-S-fluorobenzonitrile]	< 500
COC(=O)N1CC2CC2(C#Cc2ccccn2)C1 (centres unmarked) [Example Compound 53, methyl 1-(pyridin-2-ylethynyl)-3-azabicyclo[3.1.0]hexane-3-carboxylate]	< 500
O=S(=O)(c1ccc(Cl)cc1)N1CC2CC2(C#Cc2ccccn2)C1 (centres unmarked) [Example Compound 35, 3-((4-chlorophenyl)sulfonyl)-1-(pyridin-2-ylethynyl)-3-azabicyclo[3.1.0]hexane]	< 500
Cc1ccc(S(=O)(=O)N2CC3CC3(C#Cc3ccccn3)C2)cc1 (centres unmarked) [Example Compound 37, 1-(pyridin-2-ylethynyl)-3-tosyl-3-azabicyclo[3.1.0]hexane]	< 500
N#Cc1cccc(N2CC3CC3(C#Cc3ncccn3)C2)c1 (centres unmarked) [Example Compound 62, 3-(1-(pyrimidin-2-ylethynyl)-3-azabicyclo[3.1.0]hexan-3-yl)benzonitrile]	< 500
O=C(Cc1ccccc1)N1CC2CC2(C#Cc2ccccn2)C1 (centres unmarked) [Example Compound 29, 2-phenyl-1-(1-(pyridin-2-ylethynyl)-3-azabicyclo[3.1.0]hexan-3-yl)ethanone]	< 500
COc1cccc(C#CC23CC2CN(c2cc(F)cc(C#N)c2)C3)n1 (centres unmarked) [Example Compound 15, 3-fluoro-5-(1-((6-methoxypyridin-2-yl)ethynyl)-3-azabicyclo[3.1.0]hexan-3-yl) benzonitrile]	< 500
O=C(c1ccc(Cl)cc1)N1CC2CC2(C#Cc2ccccn2)C1 (centres unmarked) [Example Compound 33, (4-chlorophenyl)(1-(pyridin-2-ylethynyl)-3-azabicyclo[3.1.0]hexan-3-yl)methanone]	< 500
Cc1nc(C#CC23CC2CN(C(=O)C(C)(C)C)C3)cs1 (centres unmarked) [Example Compound 69, 2,2-dimethyl-1-(1-((2-methylthiazol-4-yl)ethynyl)-3-azabicyclo[3.1.0]hexan-3-yl)propan-1-one]	< 500
Cc1cccc(C#CC23CC2CN(c2cncc(F)c2)C3)n1 (centres unmarked) [Example Compound 43, 3-(5-fluoropyridin-3-yl)-1-((6-methylpyridin-2-yl)ethynyl)-3-azabicyclo[3.1.0]hexane]	< 500
O=C(c1ccc(Cl)nc1)N1CC2CC2(C#Cc2ccccn2)C1 (centres unmarked) [Example Compound 56, (6-chloropyridin-3-yl)-(1-(pyridin-2-ylethynyl)-3-azabicyclo[3.1.0]hexan-3-yl)methanone]	< 500
